Assay results as given in US20090170947A1, “DISINFECTANT COMPOSITIONS, METHODS AND SYSTEMS” (priority 2007, published 2009).
Counter-ions that a name gives are not always drawn.

Key:
[1] = humans; doses of up to 3000 mg infused over 3 hours, daily; cited from earlier work
[2] = system: Staphylococcus aureus (Organism #25923); test: MIC/MBC micro-dilution at pH 7, S. aureus; assay type: cell-based; conditions: pH of 7
Experimental: (§1) In order to determine MIC (minimum inhibitory concentration) and MBC (minimum bactericidal concentration) a National Committee on Clinical Laboratory Standards (NCCLS) micro-dilution procedure was followed. According to the procedure each formulation must be exposed to 6 log concentration of organism or the highest achievable concentration. In the current protocol 100 μL of MHB was mixed with 90 μL of formulation and 10 μL of log 8 organism or the highest achievable concentration. The concentration of the formulation was adjusted to obtain the required concentration in the final solution. The mixture was incubated at 37 degree C. for 16-24 hrs. After 16-24 hours the absorbance value was read at 600 nm. The obtained data was corrected by subtracting the appropriate blanks. Finally, the wells having an absorbance >0.1 were marked + and <0.1 were marked −. The +symbol indicated growth while −symbol indicates no growth.
(§2) Staphylococcus aureus (Organism #25923), Pseudomonas aeruginosa (Organism #27853), and Candida Albicans (Organism #10231) was obtained from ATCC. […] These solutions were then serially diluted as necessary to obtain the required concentrations.

[3] = system: Pseudomonas aeruginosa (Organism #27853); test: MIC/MBC micro-dilution at pH 7, P. aeruginosa; assay type: cell-based; conditions: pH of 7
Experimental: as §1, §2

[4] = system: Candida Albicans (Organism #10231); test: MIC/MBC micro-dilution at pH 7, C. albicans; assay type: cell-based; conditions: pH of 7
Experimental: as §1, §2

[5] = rabbit, in vivo; cited from earlier work
[6] = system: S. aureus; test: Checkerboard Titration, S. aureus; assay type: cell-based, Staphylococcus aureus; conditions: PHMB with EDTA(Na4)
Experimental: The following concentrations were tested: Fraction Inhibitory Concentration (FIC) is defined as the MIC of the compound in combination divided by the MIC of the compound alone. […] In order to calculate the FIC index the following calculations are performed for compounds A and B: • FIC-A=(MIC of A in combination)/(MIC of A alone) • FIC-B=(MIC of B in combination)/(MIC of […]

[7] = system: P. aeruginosa; test: Checkerboard Titration, P. aeruginosa; assay type: cell-based, Pseudomonas aeruginosa; conditions: PHMB with EDTA(Na4)
Experimental: (§3) The method used was a NCCLS micro-dilution procedure
(§4) Fraction Inhibitory Concentration (FIC) is defined as the MIC of the compound in combination divided by the MIC of the compound alone. If the FIC index is <0.5, the combination is interpreted to be synergistic; <1 but >0.5—as partially synergistic; =1 as additive; >1 but <4 as indifferent; and ≧4 as antagonistic. In order to calculate the FIC index the following calculations are performed for compounds A and B: • FIC-A=(MIC of A in combination)/(MIC of A alone) • FIC-B=(MIC of B in combination)/(MIC of B alone) • FIC-combination=FIC-A+FIC-B

[8] = system: C. albicans; test: Checkerboard Titration, C. albicans; assay type: cell-based, Candida albicans; conditions: PHMB with EDTA(Na4)
Experimental: as §3, §4

[9] = system: blood coagulation (clotting); test: Prothrombin Time (PT) Assay; assay type: biochemical; conditions: concentration of TEDTA of 4 wt %; ISI 1.89
Experimental: Experiments were conducted to assess the anticoagulant capacities of PHMB, EDTA and combinations of PHMB and EDTA via a Prothrombin Time (PT) Assay. A PT assay (TM-4339-063) was conducted using a Coagulation Analyzer to obtain PT instead of manually recording the PT. Tetrasodium […]) was used (Alfa Aesar, Catalog #A17385, Lot #J9570A). […] […] […] INR is calculated as: INR=([…] sample/PTnormal control)^ISI ISI (International Sensitivity Index) indicates the sensitivity of individual thromboplastin. […] All the PTs greater than 3×the […] 1 (normal control) were replaced with 32 seconds.

Compound: O=C([O-])CN(CCN(CC(=O)[O-])CC(=O)O)CC(=O)O.[Na+].[Na+] [EDTA disodium]
- Tolerability [1]: well tolerated

Compound: O=C(O)CN(CCN(CC(=O)O)CC(=O)O)CC(=O)O [EDTA, EDTA, tetrasodium salt hydrate]
- MBC [2]: < 0.13 wt %
- MIC [2]: < 0.03 wt %
- MBC [3]: < 4.00 wt %
- MIC [3]: < 0.25 wt %
- MIC [4]: > 4.0 wt %

Compound: Poly(hexamethylenebiguanide) [PHMB]
- NOAEL [5]: NOAEL = 20 mg/kg/day

Compound: O=C([O-])CN(CCN(CC(=O)[O-])CC(=O)[O-])CC(=O)[O-].[Na+].[Na+].[Na+].[Na+] [EDTA(Na4), EDTA, tetrasodium salt hydrate]
- FIC of the single component (MIC in combination / MIC alone) [6]: 0.4
- FIC of the single component (MIC in combination / MIC alone) [7]: 0.25
- FIC of the single component (MIC in combination / MIC alone) [8]: 0.3
- International Normalized Ratio (INR) [9]: greater than 7.25
